Calls of active or inactive are those of the source. The rule behind the calls is not given here.
Experiments:
[1] = tested on: Mus musculus; experiment: Reduction in blood glucose concentration in male Kunming mouse assessed as decrease in glucose AUC at 20 mg/kg preadministered for 40 mins and measured after 120 mins by sucrose loading test relative to control; type: functional, organism-based
[2] = Inhibition of alpha-amylase (unknown origin); set-up: species or system Homo sapiens
[3] = tested on: Mus musculus; experiment: Reduction in blood glucose concentration in male Kunming mouse at 20 mg/kg preadministered for 40 mins and measured after 120 mins by sucrose loading test; type: functional, organism-based
[4] = biological target: T1, Alpha glucosidase (Homo sapiens, UniProt O43451+P10253+P14410+Q2M2H8); experiment: Inhibition of alpha-glucosidase (unknown origin) using p-NPG as substrate preincubated for 15 mins followed by substrate addition for 30 mins by absorbance based analysis; type: protein assay
[5] = biological target: T2, Tyrosine-protein phosphatase non-receptor type 1 (Homo sapiens, UniProt P18031); experiment: Inhibition of PTP1B (unknown origin) using pNPP as substrate preincubated for 10 mins followed by substrate addition for 20 mins by absorbance based analysis
T2 sequence (P18031 whole entry): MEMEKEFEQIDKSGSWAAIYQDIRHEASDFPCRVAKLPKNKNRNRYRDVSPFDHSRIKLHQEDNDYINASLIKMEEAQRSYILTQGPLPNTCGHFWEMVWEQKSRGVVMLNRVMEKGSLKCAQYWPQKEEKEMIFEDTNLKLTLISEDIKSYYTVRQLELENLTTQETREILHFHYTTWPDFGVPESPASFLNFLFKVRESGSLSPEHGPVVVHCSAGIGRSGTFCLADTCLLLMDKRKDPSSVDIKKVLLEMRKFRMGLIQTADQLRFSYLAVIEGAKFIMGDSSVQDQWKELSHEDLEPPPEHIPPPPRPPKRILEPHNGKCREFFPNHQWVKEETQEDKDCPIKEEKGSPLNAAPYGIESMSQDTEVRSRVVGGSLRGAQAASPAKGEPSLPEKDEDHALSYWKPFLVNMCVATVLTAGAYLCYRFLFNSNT

[6] = biological target: T1, Alpha glucosidase; experiment: Inhibition of alpha-glucosidase (unknown origin) using p-NPG as substrate incubated for 15 mins by spectrophotometric analysis; type: protein assay

Row | IC50 [4] [µM] | Compound | further results
1 |  | C[C@H]1O[C@H](O[C@H]2[C@H](O)[C@@H](O)[C@@H](O[C@H]3[C@H](O)[C@@H](O)C(O)O[C@@H]3CO)O[C@@H]2CO)[C@H](O)[C@@H](O)[C@@H]1N[C@H]1C=C(CO)[C@@H](O)[C@H](O)[C@H]1O (stereo not given in full) [ACARBOSE] | Activity [1]: Active; IC50 [2]: 17.8 µM; Activity [3]: Active
2 | > 300 | COc1cc(/C=C/C(=O)OCCOc2ccc3ccc(=O)oc3c2)ccc1O | 
3 | 258.7 | O=C(/C=C/c1ccccc1Cl)OCCOc1ccc2ccc(=O)oc2c1 | 
4 | > 300 | O=C(/C=C/c1ccc2ccccc2c1)OCCOc1ccc2ccc(=O)oc2c1 | 
5 | 124.1 | Cc1cc(OCCOC(=O)/C=C/c2ccc(Cl)cc2Cl)cc2oc(=O)cc(C)c12 | 
6 |  | CC1(C)Oc2cc3oc(=O)ccc3cc2C[C@@H]1O [DECURSINOL] | IC50 [5]: 58.9 µM; IC50 [6]: 65.3 µM
7 | 263.2 | O=C(/C=C/c1ccc(Br)cc1)OCCOc1ccc2ccc(=O)oc2c1 | 
8 | 99 | O=C(OCCOc1ccc2ccc(=O)oc2c1)c1ccc(Cl)cc1Cl | 
9 | > 300 | O=C(/C=C/c1ccc(F)cc1)OCCOc1ccc2ccc(=O)oc2c1 | 
10 | > 300 | CCCc1cc(=O)oc2cc(OCCOC(=O)/C=C/c3ccc(Cl)cc3Cl)ccc12 | 
11 | 235.6 | O=C(/C=C/c1ccccc1)OCCOc1ccc2ccc(=O)oc2c1 | 
12 | 283.2 | O=C(/C=C/c1ccc(Cl)cc1)OCCOc1ccc2ccc(=O)oc2c1 | 
13 |  | CO[C@@H]1c2cc3ccc(=O)oc3cc2OC(C)(C)[C@H]1OC(=O)C=C(C)C | IC50 [5]: 6.6 µM; IC50 [6]: 89.2 µM
14 | > 300 | CCN(CC)c1ccc(/C=C/C(=O)OCCOc2ccc3ccc(=O)oc3c2)cc1 | 
15 |  | O=C(O)c1cc2ccc(=O)oc2cc1O | IC50 [5]: 8 µM; IC50 [6]: 172.1 µM

From ChEMBL document CHEMBL6092166, “Design, synthesis and enzymatic inhibition evaluation of novel 4-hydroxy Pd-C-Ⅲ derivatives as α-glucosidase and PTP1B dual-target inhibitors” (Eur J Med Chem, 2024)
